Experimental data as given in patent publication US10752615B2, “Spirocyclic containing compounds and pharmaceutical uses thereof” (GB005, Inc., priority 2016, dated 2020).

Key:
[1] = system: PBMC stimulated with anti-CD3 and anti-CD28 antibodies; experiment: CD3/CD28 mediated PBMC proliferation assay; details: Homo sapiens, 72 h, read-out: CD3/CD28 PMBC proliferation IC50 (nM)
Procedure: Individual wells of 96 well tissue culture plates were coated with 50 μL of 5 μg/mL anti-CD3 (OKT3, eBiosciences) overnight at 4° C. Human blood was collected in EDTA containing vacutainer tubes. […] The cells were placed in a humidified 37° C. incubator for 72 hours. Controls included unstimulated cells and media alone.

[2] = target: BTK (Homo sapiens (Human), UniProt Q06187); experiment: Kinase inhibition assay (Nanosyn, microfluidic detection), BTK; assay type: biochemical; details: 1 mM ATP, 3 hours at 25° C.
Chain of BTK (Q06187 whole entry): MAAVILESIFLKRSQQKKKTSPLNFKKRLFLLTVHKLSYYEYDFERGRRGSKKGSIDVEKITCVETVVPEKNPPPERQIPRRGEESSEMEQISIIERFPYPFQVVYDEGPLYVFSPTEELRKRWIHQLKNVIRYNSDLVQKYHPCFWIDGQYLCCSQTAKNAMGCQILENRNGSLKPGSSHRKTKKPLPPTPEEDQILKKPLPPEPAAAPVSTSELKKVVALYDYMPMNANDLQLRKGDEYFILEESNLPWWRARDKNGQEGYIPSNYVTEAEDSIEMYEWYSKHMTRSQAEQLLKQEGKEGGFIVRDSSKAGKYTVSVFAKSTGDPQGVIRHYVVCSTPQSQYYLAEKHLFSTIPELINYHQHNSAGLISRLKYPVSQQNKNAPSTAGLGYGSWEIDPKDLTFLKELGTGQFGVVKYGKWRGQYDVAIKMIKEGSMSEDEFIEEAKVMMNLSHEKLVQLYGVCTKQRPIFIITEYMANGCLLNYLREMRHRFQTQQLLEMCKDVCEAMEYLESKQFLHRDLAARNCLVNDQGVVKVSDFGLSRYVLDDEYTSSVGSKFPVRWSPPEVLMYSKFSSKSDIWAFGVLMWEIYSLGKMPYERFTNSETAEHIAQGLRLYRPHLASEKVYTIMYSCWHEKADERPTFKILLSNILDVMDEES

[3] = system: experimental autoimmune encephalomyelitis (EAE); experiment: Experimental autoimmune encephalomyelitis (EAE) model of multiple sclerosis; assay type: in vivo, female C57BL/6 mice; details: oral gavage once daily, 30 mg/kg
Procedure: TEC kinases play important roles in immune cells and pathogenic microglia in multiple sclerosis. The efficacy of compound 16 was evaluated in experimental autoimmune encephalomyelitis (EAE), a mouse model of multiple sclerosis. […] A group of ten naïve C57BL/6 mice was maintained as a negative control. […] Mouse is not alert. 5.0—Death or severe paralysis resulting in euthanasia.

[4] = target: TXK (Homo sapiens (Human), UniProt P42681); experiment: Kinase inhibition assay (Nanosyn, microfluidic detection), TXK; assay type: biochemical; details: 1 mM ATP, 3 hours at 25° C.
Chain of TXK (P42681 whole entry): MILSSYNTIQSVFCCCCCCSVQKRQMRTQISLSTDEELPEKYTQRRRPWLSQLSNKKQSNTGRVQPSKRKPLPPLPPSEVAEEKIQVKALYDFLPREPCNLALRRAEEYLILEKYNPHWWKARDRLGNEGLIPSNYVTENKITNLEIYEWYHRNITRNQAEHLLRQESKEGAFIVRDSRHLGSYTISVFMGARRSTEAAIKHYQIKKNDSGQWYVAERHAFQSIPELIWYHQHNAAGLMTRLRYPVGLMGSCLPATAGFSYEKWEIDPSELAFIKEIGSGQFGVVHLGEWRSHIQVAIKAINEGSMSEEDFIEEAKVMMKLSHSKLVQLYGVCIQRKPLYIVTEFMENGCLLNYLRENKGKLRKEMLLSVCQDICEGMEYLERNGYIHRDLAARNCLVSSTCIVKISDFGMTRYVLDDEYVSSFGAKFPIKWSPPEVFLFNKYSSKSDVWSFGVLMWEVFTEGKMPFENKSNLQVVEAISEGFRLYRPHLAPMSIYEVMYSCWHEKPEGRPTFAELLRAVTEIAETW

Row | SMILES | IC50 [2] | IC50 [4] | IC50 [1] | disease severity (EAE score) ([3]; in PEG 400, treated after onset of symptoms, mice) | symptoms of neurological deficit ([3]; versus vehicle treated animals that rapidly progressed)
1 | C=CC(=O)N1CC[C@]2(C1)C[C@@H](n1c(NC(=O)c3cnc(C(C)C)s3)nc3cc(CN[C@@H](C)C(C)(C)C)ccc31)C2 [Compound 11] |  |  | > 300 nM |  | 
2 | C=CC(=O)N1CCC2(CC1)CC(n1c(NC(=O)c3ccc(C(F)F)s3)nc3cc(CN[C@@H](C)C(C)(C)C)ccc31)C2 [Compound 12] |  |  | > 300 nM |  | 
3 | C=CC(=O)N1CC[C@]2(C1)C[C@H](n1c(NC(=O)c3ccno3)nc3ccccc31)C2 [Compound 45] |  |  | 60.3 nM |  | 
4 | C=CC(=O)N1CC[C@]2(C1)C[C@@H](n1c(NC(=O)c3ccc(-c4cnco4)s3)nc3c(Cl)cccc31)C2 [Compound 72] |  |  | > 300 nM |  | 
5 | C=CC(=O)N1CC[C@]2(C1)C[C@H](n1c(NC(=O)c3cc4c(s3)CCCC4)nc3ccccc31)C2 [Compound 80] |  |  | > 300 nM |  | 
6 | C=CC(=O)N1CC[C@]2(C1)C[C@H](n1c(NC(=O)c3cc4ccccc4s3)nc3ccccc31)C2 [Compound 81] |  |  | > 300 nM |  | 
7 | C=CC(=O)N1CC[C@]2(C1)C[C@@H](n1c(NC(=O)c3ccc(-c4cnco4)s3)nc3c(OC)cccc31)C2 [Compound 88] |  |  | > 300 nM |  | 
8 | C=CC(=O)N1CC[C@]2(C1)C[C@H](n1c(NC(=O)c3ccc(C(=O)O)s3)nc3ccccc31)C2 [Compound 100] |  |  | > 300 nM |  | 
9 | C=CC(=O)N1CC[C@]2(C1)C[C@H](n1c(NC(=O)c3ccc(NC(=O)CC)s3)nc3ccccc31)C2 [Compound 105] | 112 nM | 23.2 nM |  |  | 
10 | C#Cc1ccc(C(=O)Nc2nc3ccccc3n2[C@H]2C[C@@]3(CCN(C(=O)C=C)C3)C2)s1 [Compound 107] | 21.1 nM | 5.25 nM |  |  | 
11 | C=CC(=O)N1CC[C@]2(C1)C[C@H](n1c(NC(=O)c3ccc(-c4ccc(=O)n(C)c4)s3)nc3ccccc31)C2 [Compound 108] | 10.4 nM | 1.02 nM |  |  | 
12 | C=CC(=O)N1CC[C@]2(C1)C[C@H](n1c(NC(=O)c3ccc(-c4ccn(C)c(=O)c4)s3)nc3ccccc31)C2 [Compound 109] | 43.5 nM | 14 nM |  |  | 
13 | C=CC(=O)N1CC[C@]2(C1)C[C@H](n1c(NC(=O)c3ccc(NC(=O)C4CCOCC4)s3)nc3ccccc31)C2 [Compound 112] |  |  | > 300 nM |  | 
14 | C=CC(=O)N1CC[C@]2(C1)C[C@H](n1c(NC(=O)c3ccc(-c4cnn(C)c4)s3)nc3ccccc31)C2 [Compound 113] | 4.63 nM | 1.32 nM |  |  | 
15 | C=CC(=O)N1CC[C@]2(C1)C[C@H](n1c(NC(=O)c3ccc(-c4ccnnc4)s3)nc3ccccc31)C2 [Compound 114] | 3.31 nM | 0.22 nM |  |  | 
16 | C=CC(=O)N1CC[C@]2(C1)C[C@H](n1c(NC(=O)c3ccc(-c4cc[nH]n4)s3)nc3ccccc31)C2 [Compound 116] | 15.7 nM | 3.08 nM |  |  | 
17 | C=CC(=O)N1CC[C@]2(C1)C[C@H](n1c(NC(=O)c3ccc(-c4ccc(NC)nc4)s3)nc3ccccc31)C2 [Compound 117] | 7.43 nM | 4.9 nM |  |  | 
18 | C=CC(=O)N1CC[C@]2(C1)C[C@H](n1c(NC(=O)c3ccc(-c4cncn4C)s3)nc3ccccc31)C2 [Compound 123] | 5.33 nM | 0.49 nM |  |  | 
19 | C=CC(=O)N1CC[C@]2(C1)C[C@H](n1c(NC(=O)c3ccc(-c4ccc(F)nc4)s3)nc3ccccc31)C2 [Compound 126] | 9.21 nM | 0.8 nM |  |  | 
20 | C=CC(=O)N1CC[C@]2(C1)C[C@H](n1c(NC(=O)c3ccc(-c4cnccn4)s3)nc3ccccc31)C2 [Compound 132] | 10.3 nM | 1.99 nM |  |  | 
21 | C=CC(=O)N1CC[C@]2(C1)C[C@H](n1c(NC(=O)c3ccc(-c4ccncn4)s3)nc3ccccc31)C2 [Compound 133] | 3.27 nM | 0.37 nM |  |  | 
22 | C=CC(=O)N1CC[C@]2(C1)C[C@H](n1c(NC(=O)c3ccc(-c4cncnc4C)s3)nc3ccccc31)C2 [Compound 134] | 8.36 nM | 1.01 nM |  |  | 
23 | C=CC(=O)N1CC[C@]2(C1)C[C@H](n1c(NC(=O)c3ccc(-c4cnc(C)nc4)s3)nc3ccccc31)C2 [Compound 135] | 12.7 nM | 8.67 nM |  |  | 
24 | C=CC(=O)N1CC[C@]2(C1)C[C@H](n1c(NC(=O)c3ccc(-c4cccc(NC)n4)s3)nc3ccccc31)C2 [Compound 139] | 1.54 nM | 0.75 nM |  |  | 
25 | C=CC(=O)N1CC[C@]2(C1)C[C@H](n1c(NC(=O)c3ccc(-c4cc(N)ncn4)s3)nc3ccccc31)C2 [Compound 141] | 1.83 nM | 0.29 nM |  |  | 
26 | C=CC(=O)N1CC[C@]2(C1)C[C@H](n1c(NC(=O)c3ccc(-c4ccc(C)nc4)s3)nc3ccccc31)C2 [Compound 143] | 7.92 nM | 9.08 nM |  |  | 
27 | C=CC(=O)N1CC[C@]2(C1)C[C@H](n1c(NC(=O)c3ccc(-c4ccc(CO)nc4)s3)nc3ccccc31)C2 [Compound 144] | 3.45 nM | 1.51 nM |  |  | 

Continued by falling IC50 [2], values first:

Row | IC50 [2] | IC50 [4] | SMILES | IC50 [1] | disease severity (EAE score) ([3]; in PEG 400, treated after onset of symptoms, mice) | symptoms of neurological deficit ([3]; versus vehicle treated animals that rapidly progressed)
28 | 1.43 nM | 0.34 nM | C=CC(=O)N1CC[C@]2(C1)C[C@H](n1c(NC(=O)c3ccc(-c4cn[nH]c4)s3)nc3ccccc31)C2 [Compound 124] |  |  | 
29 | 1.11 nM | 0.18 nM | C=CC(=O)N1CC[C@]2(C1)C[C@H](n1c(NC(=O)c3ccc(-c4ccncc4)s3)nc3ccccc31)C2 [Compound 110] |  |  | 
30 | 1.06 nM | 0.24 nM | C=CC(=O)N1CC[C@]2(C1)C[C@H](n1c(NC(=O)c3ccc(-c4ccnc(F)c4)s3)nc3ccccc31)C2 [Compound 125] |  |  | 
31 | 0.98 nM | 0.76 nM | C=CC(=O)N1CC[C@]2(C1)C[C@H](n1c(NC(=O)c3ccc(-c4ccnc(NC)n4)s3)nc3ccccc31)C2 [Compound 137] |  |  | 
32 | 0.94 nM |  | C=CC(=O)N1CC[C@]2(C1)C[C@H](n1c(NC(=O)c3ccc(-c4cnco4)s3)nc3ccccc31)C2 [Compound 16] |  | greatly attenuated | minimal symptoms
33 | 0.84 nM | 0.21 nM | C=CC(=O)N1CC[C@]2(C1)C[C@H](n1c(NC(=O)c3ccc(-c4c[nH]nc4C4CC4)s3)nc3ccccc31)C2 [Compound 129] |  |  | 
34 | 0.7 nM | 0.24 nM | C=CC(=O)N1CC[C@]2(C1)C[C@H](n1c(NC(=O)c3ccc(-c4c[nH]nc4C)s3)nc3ccccc31)C2 [Compound 156] |  |  | 
35 | 0.62 nM | 0.48 nM | C=CC(=O)N1CC[C@]2(C1)C[C@H](n1c(NC(=O)c3ccc(-c4cncc(NC)c4)s3)nc3ccccc31)C2 [Compound 142] |  |  | 
36 | 0.57 nM | 0.22 nM | C=CC(=O)N1CC[C@]2(C1)C[C@H](n1c(NC(=O)c3ccc(-c4ccnc(CO)c4)s3)nc3ccccc31)C2 [Compound 146] |  |  | 
37 | 0.54 nM | 0.2 nM | C=CC(=O)N1CC[C@]2(C1)C[C@H](n1c(NC(=O)c3ccc(-c4cncc(NC)n4)s3)nc3ccccc31)C2 [Compound 140] |  |  | 
38 | 0.49 nM | 0.2 nM | C=CC(=O)N1CC[C@]2(C1)C[C@H](n1c(NC(=O)c3ccc(-c4cc(NC)ncn4)s3)nc3ccccc31)C2 [Compound 145] |  |  | 
39 | 0.41 nM | 0.21 nM | C=CC(=O)N1CC[C@]2(C1)C[C@H](n1c(NC(=O)c3ccc(-c4ccnc(C)c4)s3)nc3ccccc31)C2 [Compound 147] |  |  | 
